What all share (experiment): radiochemical AC activity assay, […]cAMP from [α-32P]ATP, Sf9 membranes
Holding throughout (assay type): biochemical

Assay [1] addresses T1, AC2 (recombinant) (Rattus norvegicus, UniProt P26769).
T1 construct: gene Adcy2; recombinant membranous AC2 expressed by baculovirus in Sf9 cells; crude Sf9 membranes
The note with it: read-out: RecombinantACs / AC2.

In assay [2] the target is T2, AC1 (recombinant) (Bos taurus, UniProt P19754).
T2 construct: gene ADCY1; recombinant membranous AC1 expressed by baculovirus in Sf9 cells; crude Sf9 membranes
T2 sequence (P19754 whole entry): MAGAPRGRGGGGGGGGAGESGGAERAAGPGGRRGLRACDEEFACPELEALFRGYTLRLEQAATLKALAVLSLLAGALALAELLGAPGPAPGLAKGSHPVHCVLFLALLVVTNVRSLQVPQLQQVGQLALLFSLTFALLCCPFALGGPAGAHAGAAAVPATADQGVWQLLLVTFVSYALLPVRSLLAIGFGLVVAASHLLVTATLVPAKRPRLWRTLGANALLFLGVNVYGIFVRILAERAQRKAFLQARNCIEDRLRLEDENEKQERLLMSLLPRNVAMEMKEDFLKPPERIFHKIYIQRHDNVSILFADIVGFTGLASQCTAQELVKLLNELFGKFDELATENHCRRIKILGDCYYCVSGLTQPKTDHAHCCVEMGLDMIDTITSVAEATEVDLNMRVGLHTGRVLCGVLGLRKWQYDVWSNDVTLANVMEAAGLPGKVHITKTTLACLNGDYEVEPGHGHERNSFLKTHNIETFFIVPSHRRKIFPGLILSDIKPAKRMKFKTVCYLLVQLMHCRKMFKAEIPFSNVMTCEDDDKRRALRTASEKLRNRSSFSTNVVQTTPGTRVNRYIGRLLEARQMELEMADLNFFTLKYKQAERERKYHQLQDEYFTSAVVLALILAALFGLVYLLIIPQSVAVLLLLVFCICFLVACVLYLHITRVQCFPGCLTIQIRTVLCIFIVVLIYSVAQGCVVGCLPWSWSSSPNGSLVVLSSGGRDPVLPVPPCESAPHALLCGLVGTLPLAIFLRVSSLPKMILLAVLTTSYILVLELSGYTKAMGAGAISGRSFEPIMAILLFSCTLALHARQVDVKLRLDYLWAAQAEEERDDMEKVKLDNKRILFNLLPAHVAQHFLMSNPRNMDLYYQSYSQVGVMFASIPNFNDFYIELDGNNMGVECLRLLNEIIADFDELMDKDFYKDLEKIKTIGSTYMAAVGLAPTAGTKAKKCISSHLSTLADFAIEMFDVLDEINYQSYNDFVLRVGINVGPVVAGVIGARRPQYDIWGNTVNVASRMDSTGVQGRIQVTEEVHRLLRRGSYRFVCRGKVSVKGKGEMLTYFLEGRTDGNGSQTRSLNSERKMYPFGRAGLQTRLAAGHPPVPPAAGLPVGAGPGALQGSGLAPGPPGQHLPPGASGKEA
To be noted: read-out: RecombinantACs / AC1.

For assay [3], the target named is T3, AC5 (recombinant) (Canis lupus, UniProt P30803).
T3 construct: gene ADCY5; recombinant membranous AC5 expressed by baculovirus in Sf9 cells; crude Sf9 membranes
T3 sequence (P30803 whole entry): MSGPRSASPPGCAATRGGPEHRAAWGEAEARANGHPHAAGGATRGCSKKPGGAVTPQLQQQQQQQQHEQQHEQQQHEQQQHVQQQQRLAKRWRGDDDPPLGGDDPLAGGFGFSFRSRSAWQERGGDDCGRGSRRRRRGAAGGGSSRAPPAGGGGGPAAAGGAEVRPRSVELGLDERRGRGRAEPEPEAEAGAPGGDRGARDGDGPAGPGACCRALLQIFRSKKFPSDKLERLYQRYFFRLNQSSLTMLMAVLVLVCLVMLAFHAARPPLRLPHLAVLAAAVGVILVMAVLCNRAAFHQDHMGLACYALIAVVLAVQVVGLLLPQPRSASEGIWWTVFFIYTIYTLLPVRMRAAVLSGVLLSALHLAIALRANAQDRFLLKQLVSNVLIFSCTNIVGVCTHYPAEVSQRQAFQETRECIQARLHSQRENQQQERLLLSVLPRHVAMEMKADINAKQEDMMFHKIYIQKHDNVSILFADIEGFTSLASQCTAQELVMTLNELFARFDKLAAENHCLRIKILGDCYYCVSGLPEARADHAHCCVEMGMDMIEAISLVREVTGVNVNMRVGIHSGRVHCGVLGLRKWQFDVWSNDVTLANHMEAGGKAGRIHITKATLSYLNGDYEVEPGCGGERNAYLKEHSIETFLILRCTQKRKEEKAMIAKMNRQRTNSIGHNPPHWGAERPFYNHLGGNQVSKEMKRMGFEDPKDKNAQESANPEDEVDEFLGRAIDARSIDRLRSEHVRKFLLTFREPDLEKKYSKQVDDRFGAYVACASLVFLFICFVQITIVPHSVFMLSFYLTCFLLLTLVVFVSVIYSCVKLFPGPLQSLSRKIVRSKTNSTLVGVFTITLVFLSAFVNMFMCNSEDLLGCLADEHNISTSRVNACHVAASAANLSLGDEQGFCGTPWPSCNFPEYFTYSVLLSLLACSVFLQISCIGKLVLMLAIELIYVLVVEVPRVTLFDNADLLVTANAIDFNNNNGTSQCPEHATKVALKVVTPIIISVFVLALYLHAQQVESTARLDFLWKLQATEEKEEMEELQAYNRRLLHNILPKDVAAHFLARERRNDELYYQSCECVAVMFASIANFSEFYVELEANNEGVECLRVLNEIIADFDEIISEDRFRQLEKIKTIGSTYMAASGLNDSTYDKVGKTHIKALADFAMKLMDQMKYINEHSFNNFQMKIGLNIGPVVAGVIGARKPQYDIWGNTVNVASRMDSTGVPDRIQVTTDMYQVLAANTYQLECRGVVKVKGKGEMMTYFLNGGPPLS
To be noted: read-out: RecombinantACs / AC5.

The target in assay [4] is T3, AC5 (recombinant). To be noted: read-out: Recombinant ACs / AC5.
Assay [5] deals with T1, AC2 (recombinant). To be noted: read-out: Recombinant ACs / AC2.
In assay [6] the target is T2, AC1 (recombinant). The note with it: read-out: Recombinant ACs / AC1.

T1 sequence (P26769 whole entry): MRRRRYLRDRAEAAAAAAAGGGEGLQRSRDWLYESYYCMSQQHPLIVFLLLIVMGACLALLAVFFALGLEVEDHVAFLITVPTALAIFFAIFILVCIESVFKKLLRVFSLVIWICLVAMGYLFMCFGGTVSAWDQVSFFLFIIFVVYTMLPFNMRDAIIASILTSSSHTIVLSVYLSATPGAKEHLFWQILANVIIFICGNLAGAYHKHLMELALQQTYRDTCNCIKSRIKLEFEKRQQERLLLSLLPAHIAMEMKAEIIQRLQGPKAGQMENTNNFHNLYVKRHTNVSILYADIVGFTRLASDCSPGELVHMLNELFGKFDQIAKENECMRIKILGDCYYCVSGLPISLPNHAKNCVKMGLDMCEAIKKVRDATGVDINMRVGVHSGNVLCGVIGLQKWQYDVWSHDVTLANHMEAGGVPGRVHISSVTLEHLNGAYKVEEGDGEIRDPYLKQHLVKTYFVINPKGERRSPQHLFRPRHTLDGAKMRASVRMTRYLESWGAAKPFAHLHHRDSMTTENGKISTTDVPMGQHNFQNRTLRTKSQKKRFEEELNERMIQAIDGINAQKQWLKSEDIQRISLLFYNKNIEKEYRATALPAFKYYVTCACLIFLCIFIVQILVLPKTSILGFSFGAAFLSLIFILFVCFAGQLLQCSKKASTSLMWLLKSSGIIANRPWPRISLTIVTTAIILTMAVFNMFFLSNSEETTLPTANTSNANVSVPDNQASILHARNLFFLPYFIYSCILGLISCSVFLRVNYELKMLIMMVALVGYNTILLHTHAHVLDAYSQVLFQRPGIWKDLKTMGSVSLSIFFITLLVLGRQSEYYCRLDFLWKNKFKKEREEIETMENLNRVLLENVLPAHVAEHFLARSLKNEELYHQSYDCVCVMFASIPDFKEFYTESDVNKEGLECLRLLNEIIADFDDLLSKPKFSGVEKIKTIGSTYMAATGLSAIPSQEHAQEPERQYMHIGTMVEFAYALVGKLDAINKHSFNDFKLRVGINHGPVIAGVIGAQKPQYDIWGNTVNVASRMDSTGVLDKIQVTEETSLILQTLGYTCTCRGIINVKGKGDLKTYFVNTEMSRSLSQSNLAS

Take `C=C[C@@]1(C)CC(=O)[C@]2(O)[C@@]3(C)[C@@H](O)CCC(C)(C)[C@@H]3[C@H](O)[C@H](OC(C)=O)[C@@]2(C)O1` [Forskolin]: the EC50 on AC2 (recombinant) [1] came to 13.4 µM; on AC1 (recombinant) [2] it was 2.3 µM; at AC5 (recombinant) [3] it was 5.8 µM.

As to `Nc1ncc2c(n1)CC(c1ccco1)CC2=O` (stereo not drawn) [NKY80, 2-amino-7-(2-furanyl)-7,8-dihydro-5(6H)-quinazolinone], the IC50 on AC5 (recombinant) [4] worked out at 81.1 µM; on AC2 (recombinant) [5], 1110 µM; on AC1 (recombinant) [6], 330 µM.

With `Nc1ncnc2c1ncn2C1CCCO1` (stereo not drawn) [SQ22,536, 9-(tetra-hydro-2-furanyl)-9H-purin-6-amine], the values for the IC50 at AC5 (recombinant) [4], on AC2 (recombinant) [5] and at AC1 (recombinant) [6] were 9.5 µM, 381 µM and 110 µM, respectively.

With `Nc1ncnc2c1ncn2[C@@H]1O[C@H](CO)[C@@H](O)[C@@H]1O` [vidarabine, 9-β-D-arabinosyladenine], the figures for the IC50 on AC5 (recombinant) [4], on AC2 (recombinant) [5] and at AC1 (recombinant) [6] were 20 µM, 545 µM and 138 µM, respectively.

Values taken from paper PMC3698094, “Similarly Potent Inhibition of Adenylyl Cyclase by P-Site Inhibitors in Hearts from Wild Type and AC5 Knockout Mice” (PLoS ONE, 2013).
